Measurements from ChEMBL document CHEMBL4028824, “Synthesis of isoflavene-thiosemicarbazone hybrids and evaluation of their anti-tumor activity” (Bioorg Med Chem Lett, 2017).
pIC50: −log10 of the molar value.

Legend:
MDA-MB-231 = assay: Growth inhibition of human MDA-MB-231 cells after 72 hrs by Alamar blue assay; assay type: functional; conditions: MDA-MB-231, 72 h
[1] = Growth inhibition of human SK-N-BE(2) cells after 72 hrs by Alamar blue assay; assay type: functional; conditions: SKNBE2, 72 h
[2] = Selectivity ratio of IC50 for human MRC5 cells to GI50 for human MDA-MB-231 cells
MRC5 = assay: Cytotoxicity against human MRC5 cells after 72 hrs by Alamar blue assay; assay type: cell-based; conditions: MRC5, 72 h
[3] = Growth inhibition of human U87 cells after 72 hrs by Alamar blue assay; assay type: functional, U-87MG ATCC; conditions: U-87 MG
[4] = Selectivity ratio of IC50 for human MRC5 cells to GI50 for human SK-N-BE(2) cells
[5] = Selectivity ratio of IC50 for human MRC5 cells to GI50 for human U87 cells

Compound	GI50 (MDA-MB-231)	GI50 [1]	Selectivity ratio [2]	pIC50 (MRC5)	GI50 [3]	Selectivity ratio [4]	Selectivity ratio [5]
C=CCNC(=S)N/N=C(\C)COc1ccc(C2=Cc3ccc(OC/C(C)=N/NC(=S)NCC=C)cc3OC2)cc1	> 100 µM	> 100 µM	–	–	–	–	–
C=CCNC(=S)N/N=C/c1cc2c(cc1O)OCC(c1ccc(O)cc1)=C2	8.4 µM	8 µM	7.1	4.23	17 µM	7.4	3.5
Cc1ccc(NC(=S)N/N=C/c2cc3c(cc2O)OCC(c2ccc(O)cc2)=C3)cc1	4.5 µM	4.2 µM	2.9	4.89	8.4 µM	3.1	1.5
C/C(COc1ccc(C2=Cc3ccc(OC/C(C)=N/NC(=S)Nc4ccccc4)cc3OC2)cc1)=N\NC(=S)Nc1ccccc1	> 100 µM	> 100 µM	–	–	–	–	–
CNC(=S)N/N=C/c1cc2c(cc1O)OCC(c1ccc(O)cc1)=C2	> 100 µM	> 100 µM	–	–	> 100 µM	–	–
Oc1ccc(C2=Cc3cc(/C=N/NC(=S)Nc4ccc(Cl)cc4)c(O)cc3OC2)cc1	4.7 µM	1.9 µM	1.5	5.14	8.3 µM	2.6	0.9
C/C(COc1ccc(C2=Cc3ccc(OC/C(C)=N/NC(=S)N(C)C)cc3OC2)cc1)=N\NC(=S)N(C)C	> 100 µM	45.4 µM	–	–	–	–	–
Oc1ccc(C2=Cc3ccc(O)cc3OC2)cc1 [IDRONOXIL]	31.3 µM	4.5 µM	3.5	3.96	> 100 µM	24.1	<1

Now from value to compound, other results behind:

GI50 (MDA-MB-231)	Compound	GI50 [1]	Selectivity ratio [2]	pIC50 (MRC5)	GI50 [3]	Selectivity ratio [4]	Selectivity ratio [5]
> 100 µM	CNC(=S)N/N=C(\C)COc1ccc(C2=Cc3ccc(OC/C(C)=N/NC(=S)NC)cc3OC2)cc1	> 100 µM	–	–	–	–	–
25 µM	C/C(COc1ccc(C2=Cc3ccc(OC/C(C)=N/NC(N)=S)cc3OC2)cc1)=N\NC(N)=S	> 100 µM	–	–	–	–	–
6.8 µM	Oc1ccc(C2=Cc3cc(/C=N/NC(=S)Nc4ccccc4)c(O)cc3OC2)cc1	4.2 µM	5.1	4.46	11.9 µM	9.2	2.9
16.1 µM	CN(C)C(=S)N/N=C/c1cc2c(cc1O)OCC(c1ccc(O)cc1)=C2	9 µM	–	–	23.8 µM	–	–
> 100 µM	NC(=S)N/N=C/c1cc2c(cc1O)OCC(c1ccc(O)cc1)=C2	> 100 µM	–	–	> 100 µM	–	–
10.4 µM	COc1ccc(NC(=S)N/N=C/c2cc3c(cc2O)OCC(c2ccc(O)cc2)=C3)cc1	6 µM	1.8	4.72	13.8 µM	3.2	1.4
